Data from patent publication US20210134398A1, “Combinatorial Chemistry Computational System and Enhanced Selection Method” (Southern Methodist University, priority 2019, published 2021).
Where two headings read alike, the source gives them in different places.

Columns and labels:
DU145TXR = experiment: Cell viability, toxicity of the compounds themselves; assay type: cell-based; settings: absence of chemotherapeutic or very low paclitaxel
Method: It should be noted that compounds 541 and 551 were not assessed in these latter experiments.
MTT cell viability assay. Cells were trypsinized from monolayers and seeded with 3000 cells in 150 μL of complete medium in a 96 well plate. After 24 hours, cells were treated for 48 hours with paclitaxel (Acros Organics, NJ) and/or P-gp inhibitory compounds dissolved in DMSO, or DMSO controls. All additions were diluted into complete medium. After 48 hours of treatment, MTT assays were performed as described^41 using 5 mg/mL of MTT (Acros Organics, NJ) solution prepared in PBS (137 mM NaCl, 2.7 mM KCl, 10 mM Na2HPO4, 1.8 mM KH2PO4, pH 7.4). After 4 hours of incubation with MTT, the media was removed and the formazan crystals were dissolved in 100 μL of DMSO. The absorbance at 570 nm was then measured using a BioTek Cytation 5 imaging multi-mode reader (Bio-Tek, Winooski, Vt.). Percent viability was calculated using DMSO treated cells as representative for 100% viability, according to Equation 1. Background absorbance was determined using MTT and complete medium without cells and subtracted from all the test values. Equation 1: […]

[1] = target: T1, cysteineless mouse P-glycoprotein (Mus musculus, UniProt P21447, C1070A/C1121A/C1223A/C133A/C427A/C638A/C669A/C713A/C952A); settings: in the presence of 29, from Brewer et al. (2014), cited from earlier work
T1 construct: made in house; host or cells: Pichia pastoris
T1 sequence (P21447 whole entry C133A/C427A/C638A/C669A/C713A/C952A/C1070A/C1121A/C1223A): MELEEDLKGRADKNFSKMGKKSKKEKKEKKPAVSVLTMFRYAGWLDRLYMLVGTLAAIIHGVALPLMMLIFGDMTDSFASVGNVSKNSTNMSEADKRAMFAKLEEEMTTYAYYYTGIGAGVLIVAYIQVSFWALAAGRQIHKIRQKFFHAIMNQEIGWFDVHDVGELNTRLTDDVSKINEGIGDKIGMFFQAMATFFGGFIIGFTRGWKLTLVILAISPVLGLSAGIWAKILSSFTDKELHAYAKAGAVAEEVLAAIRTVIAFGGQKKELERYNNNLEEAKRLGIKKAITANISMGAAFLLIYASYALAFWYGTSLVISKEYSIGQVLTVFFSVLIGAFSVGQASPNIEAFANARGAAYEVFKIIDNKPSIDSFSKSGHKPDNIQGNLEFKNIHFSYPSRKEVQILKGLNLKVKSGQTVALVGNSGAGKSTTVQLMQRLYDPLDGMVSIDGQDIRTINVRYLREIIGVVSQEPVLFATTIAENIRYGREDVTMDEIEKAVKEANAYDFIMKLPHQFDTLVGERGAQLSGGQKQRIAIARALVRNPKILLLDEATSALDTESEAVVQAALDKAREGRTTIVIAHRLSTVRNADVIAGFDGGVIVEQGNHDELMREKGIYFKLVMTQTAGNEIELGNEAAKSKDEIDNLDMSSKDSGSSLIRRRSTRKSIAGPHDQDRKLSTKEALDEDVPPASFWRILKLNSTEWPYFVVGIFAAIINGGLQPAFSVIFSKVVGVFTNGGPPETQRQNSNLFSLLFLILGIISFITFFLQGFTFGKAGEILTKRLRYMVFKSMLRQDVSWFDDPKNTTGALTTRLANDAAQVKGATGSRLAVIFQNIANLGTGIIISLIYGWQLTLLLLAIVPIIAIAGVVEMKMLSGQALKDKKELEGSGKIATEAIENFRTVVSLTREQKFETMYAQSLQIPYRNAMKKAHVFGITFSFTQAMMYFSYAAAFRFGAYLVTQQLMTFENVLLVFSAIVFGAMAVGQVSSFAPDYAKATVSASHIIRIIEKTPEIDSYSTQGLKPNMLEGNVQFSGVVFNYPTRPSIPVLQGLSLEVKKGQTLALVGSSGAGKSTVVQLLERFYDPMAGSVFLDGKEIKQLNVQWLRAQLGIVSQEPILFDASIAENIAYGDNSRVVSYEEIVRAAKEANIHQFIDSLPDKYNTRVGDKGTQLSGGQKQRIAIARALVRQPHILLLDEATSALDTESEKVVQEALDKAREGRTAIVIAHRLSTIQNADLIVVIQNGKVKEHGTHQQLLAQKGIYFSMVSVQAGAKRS

Cc1cc(C)c(-c2cc(NC(=O)CSCC(=O)NC(c3ccccc3)c3ccccc3)n(-c3ccccc3)n2)cc1C [29-280, N-(diphenylmethyl)-2-[({[1-phenyl-3-(2,4,5-trimethylphenyl)-1H-pyrazol-5-yl]carbamoyl)methyl}sulfanyl]acetamide]
Toxicity of the compound to DU145TXR cells (DU145TXR): seemed to exhibit some toxicity

Cc1cc(C)c(-c2cc(NC(=O)CSc3nnc4c(n3)[nH]c3ccccc34)n(-c3ccccc3)n2)cc1C [29-541, 2-((5H-[1,2,4]triazino[5,6-b]indol-3-yl)thio)-N-(1-phenyl-3-(2,4,5-trimethylphenyl)-1H-pyrazol-5-yl)acetamide]
Toxicity of the compound to DU145TXR cells (DU145TXR): showed some toxicity

Cc1cc(C)c(-c2cc(NC(=O)CSc3nnc(C4CC4)[nH]3)n(-c3ccccc3)n2)cc1C [compound 29, reference compound]
Effect on SL-ANP binding [1]: did not affect the binding | Effect on SL-ANP binding ([1]; listed as SMU29): no
